This is an account of results in patent US8338418B2, “Dual-acting antihypertensive agents” (Theravance, Inc., priority 2008, dated 2012).

Where only a bound is given, the exact number is not on record here.

Test [1] addresses T1, human AT1 receptor (Homo sapiens, UniProt P30556).
T1 construct: expressed in transfected cells; membrane preparation
T1 sequence (P30556 1-359): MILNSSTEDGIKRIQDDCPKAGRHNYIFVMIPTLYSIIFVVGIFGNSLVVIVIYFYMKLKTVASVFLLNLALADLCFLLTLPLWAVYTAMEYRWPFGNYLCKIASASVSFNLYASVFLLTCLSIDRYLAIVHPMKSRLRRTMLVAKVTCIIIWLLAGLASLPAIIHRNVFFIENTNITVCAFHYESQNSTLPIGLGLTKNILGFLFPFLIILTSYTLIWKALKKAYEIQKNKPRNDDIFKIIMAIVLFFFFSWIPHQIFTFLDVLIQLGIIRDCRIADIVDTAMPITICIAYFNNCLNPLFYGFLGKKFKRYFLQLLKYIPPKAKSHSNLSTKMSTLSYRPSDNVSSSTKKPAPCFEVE
Description: AT1 radioligand binding assay. The settings on record: [Eu]AngII displacement, CHO-K1 membranes expressing human AT1; read-out: pKi at the AT1 receptor (converted). As to the method:
These in vitro assays were used to assess the ability of test compounds to bind to the AT1 and the AT2 receptors.
Membrane Preparation from Cells Expressing Human AT1 or AT2 Receptors
Chinese hamster ovary (CHO-K1) derived cell lines stably expressing the cloned human AT1 or AT2 receptors, respectively, were grown in HAM's-F12 medium supplemented with 10% fetal bovine serum, 10 μg/ml penicillin/streptomycin, and 500 μg/ml geneticin in a 5% CO2 humidified incubator at 37° C. AT2 receptor expressing cells were grown in the additional presence of 100 nM PD123,319 (AT2 antagonist). When cultures reached 80-95% confluence, the cells were washed thoroughly in PBS and lifted with 5 mM EDTA. Cells were pelleted by centrifugation and snap frozen in MeOH-dry ice and stored at −80° C. until further use.
For membrane preparation, cell pellets were resuspended in lysis buffer (25 mM Tris/HCl pH 7.5 at 4° C., 1 mM EDTA, and one tablet of Complete Protease Inhibitor Cocktail Tablets with 2 mM EDTA per 50 mL buffer (Roche cat. #1697498, Roche Molecular Biochemicals, Indianapolis, Ind.)) and homogenized using a tight-fitting Dounce glass homogenizer (10 strokes) on ice. The homogenate was centrifuged at 1000×g, the supernatant was collected and centrifuged at 20,000×g. […] Protein concentration of the membrane suspension was determined by the method described in Bradford (1976) Anal Biochem. 72:248-54. […]

Test [2] deals with T2, NEP enzyme (Homo sapiens, UniProt P08473).
T2 construct: purchased R&D Systems, Minneapolis, Minn; 1182-ZN
T2 sequence (P08473 52-750 limits assumed): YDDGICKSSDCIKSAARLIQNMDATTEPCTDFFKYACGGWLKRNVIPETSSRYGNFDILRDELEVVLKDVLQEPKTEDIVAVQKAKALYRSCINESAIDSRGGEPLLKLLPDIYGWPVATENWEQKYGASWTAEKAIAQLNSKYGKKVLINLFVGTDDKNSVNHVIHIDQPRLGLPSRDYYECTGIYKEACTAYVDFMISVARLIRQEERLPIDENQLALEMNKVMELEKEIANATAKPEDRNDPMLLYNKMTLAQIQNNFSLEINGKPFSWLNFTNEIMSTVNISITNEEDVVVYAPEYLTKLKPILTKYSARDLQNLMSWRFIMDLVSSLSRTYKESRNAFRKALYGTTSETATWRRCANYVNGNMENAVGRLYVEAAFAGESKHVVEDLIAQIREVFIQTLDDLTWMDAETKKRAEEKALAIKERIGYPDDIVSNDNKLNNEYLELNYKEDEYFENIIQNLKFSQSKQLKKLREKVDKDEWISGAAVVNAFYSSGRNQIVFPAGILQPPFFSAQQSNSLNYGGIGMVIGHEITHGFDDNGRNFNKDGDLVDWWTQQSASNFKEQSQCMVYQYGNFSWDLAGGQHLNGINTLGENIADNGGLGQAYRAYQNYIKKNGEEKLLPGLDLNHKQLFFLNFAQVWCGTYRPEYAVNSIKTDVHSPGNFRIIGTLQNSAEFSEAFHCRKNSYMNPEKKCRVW
In words: In vitro NEP enzyme inhibition assay. Type of test: biochemical. The settings on record: fluorogenic peptide substrate; read-out: pIC50 for the NEP enzyme (converted). The procedure:
The inhibitory activities of compounds at human and rat NEP and human ACE were determined using in vitro assays as described below.
Rat NEP was prepared from the kidneys of adult Sprague Dawley rats. Whole kidneys were washed in cold PBS and brought up in ice-cold lysis buffer (1% Triton X-114, 150 mM NaCl, 50 mM Tris pH 7.5; Bordier (1981) J. Biol. Chem. 256:1604-1607) in a ratio of 5 mL of buffer for every gram of kidney. Samples were homogenized using a polytron hand held tissue grinder on ice. Homogenates were centrifuged at 1000×g in a swinging bucket rotor for 5 minutes at 3° C. The pellet was resuspended in 20 mL of ice cold lysis buffer and incubated on ice for 30 minutes. […] Protein concentrations were quantitated using a BCA detection system with BSA as a standard. […]
The assays were performed in 384-well white opaque plates at room temperature using the respective fluorogenic peptides at a concentration of 10 μM in Assay Buffer (50 mM Tris/HCl at 25° C., 100 mM NaCl, 0.01% Tween-20, 1 μM Zn, 0.025% BSA). […] The rat NEP enzyme preparation was used at a concentration that yielded quantitative proteolysis of 3 μM of Mca-RRL within 20 minutes at room temperature. […]
Plates were read on a fluorometer with excitation and emission wavelengths set to 320 nm and 405 nm, respectively. […]

With `CCCCc1nc(C(=O)N[C@@H](CC(=O)NO)Cc2ccccc2)cn1Cc1ccc(C(=O)O)cc1` [Example 1, 4-[4-((R)-1-benzyl-2-hydroxycarbamoylethylcarbamoyl)-2-butyl-imidazol-1-ylmethyl]benzoic Acid], the Ki in test [1] was < 10 µM. Also, the IC50 in test [2] was ≤ 0.1 µM.
